Measurements reported in US20140348749A1, “IDENTIFICATION AND TREATMENT OF TUMORS SENSITIVE TO GLUCOSE LIMITATION” (Whitehead Institute for Biomedical Research, priority 2013, published 2014).
“Also recorded” adds a separate entry of the source. Where two headings read alike, the source gives them in different places.

Experiments:
[1] = system: glucose limitation sensitive or resistant cell lines
Description: (§1) 250,000 cells then were attached to the plate by centrifugation at 2200 rpm without brakes for 5 min. For adherent cells, 40,000 to 80,000 cells were plated the night before the experiments. […] For spare respiratory capacity measurements, increasing FCCP concentrations (0.1, 0.5 and 2 uM) were used in order to assess maximum OCR of each cell line. For basal oxygen consumption measurements, cell number or protein concentration was used for normalization.
Metabolic responses of cell lines to mitochondrial uncoupling were analyzed by treating cells from a number of glucose limitation sensitive or resistant cell lines with the mitochondrial uncoupling agent FCCP and measuring OCR.

[2] = among tetracycline-class antibiotics; cited from earlier work
[3] = system: xenografts of mtDNA mutant cells expressing NDI1; assay: Phenformin in drinking water, xenografts of NDI1-expressing cells; assay type: in vivo, mice
Description: (§2) Further in vivo experiments were conducted using additional tumor cell lines. Xenografts were initiated with 2-5 million cells per injection site implanted subcutaneously into the right and left flanks of 5-8 week old male NOD.CB 17 Scid/J mice (Jackson Labs). Once tumours were palpable in all animals (>50 mm^3 volume by caliper measurements), mice were assigned randomly into biguanide treated or untreated groups and caliper measurements were taken every 3-4 days until tumour burden approached the limits set by institutional guidelines. Tumour volume was assessed according to the formula ½*W*W*L or 4/3*3.14*W/2*L/2*D/2 for large tumors. […] All experiments involving mice were carried out with approval from the Committee for Animal Care at MIT and under supervision of the Department of Comparative Medicine at MIT.

[4] = system: cell lines with mtDNA-encoded Complex I mutations or impaired glucose utilization
143B Rho cells = assay: Proliferation of cells lacking mtDNA with phenformin; details: 0.75 mM or 10 mM glucose
[5] = system: cells with mutations in Complex I; assay: Oxygen consumption rate (OCR) with phenformin, control or NDI1-expressing lines; assay type: cell-based
Description: as §1

KMS-26 xenografts = assay: Phenformin in drinking water, tumour xenografts; assay type: in vivo, mice
Description: as §2

BxPC3 xenografts = assay: Phenformin in drinking water, tumour xenografts; assay type: in vivo, mice; details: BxPC3 (mtDNA mutations); phenformin 1.7 mg/ml in drinking water
Description: as §2

U-937 xenografts = assay: Phenformin in drinking water, tumour xenografts; assay type: in vivo, mice; details: U-937 (mtDNA mutations); phenformin 1.7 mg/ml in drinking water
Description: as §2

NCI-H929 xenografts = assay: Phenformin in drinking water, tumour xenografts; assay type: in vivo, mice; details: NCI-H929 (poor glucose consumption); phenformin 1.7 mg/ml in drinking water
Description: as §2

Cal-62 xenografts = assay: Phenformin in drinking water, tumour xenografts; assay type: in vivo, mice; details: Cal-62 (mtDNA mutations); phenformin 1.7 mg/ml in drinking water
Description: as §2

Cal-62 cells = assay: Long term culture of mtDNA mutant cells in phenformin; assay type: cell-based; details: Cal-62, 1.5 months, 5-20 uM phenformin
Description: Cells were split 1:10 when nearing confluence. […] The ratio of wild type to mutant mtDNA was calculated by summing the 11 Sanger Sequencing peak height measurements per nucleotide position for the wild type and mutant allele allowing for the percent mutant calculated. These values were averaged over three nucleotide positions for which the base in the wild type and mutant sequence differs.

[6] = system: panel of 8 cell lines with varying expression of CYC1 and UQCRC1; assay: Metformin sensitivity versus CYC1 and UQCRC1 expression in a panel of 8 cell lines; assay type: cell-based; details: 1 mM glucose as low glucose condition
Description: We tested the hypothesis that expression of CYC1 and UQCRC1 could predict sensitivity to metformin under conditions in which glucose is limiting. […] 1 mM glucose was used as a low glucose condition in this experiment.

[7] = system: tumors from glucose limitation sensitive cell line NCI-H929; assay: Metformin treatment of mice with established tumors; assay type: in vivo; details: metformin 400 mg/kg, close to 3 weeks
Description: (§3) In vivo data was obtained initially using one cell line that is resistant to glucose limitation (NCI-H82) and one cell line that is sensitive to glucose limitation (NCI-H929). Mice harboring established tumors derived from these cell lines were treated with metformin (400 mg/kg) or vehicle (PBS) for close to 3 weeks and tumor size was measured. The tumor sizes were averaged for all tumors in that particular group at the end. […] Tumors from the sensitive line are on average half the size in mice treated with metformin than in mice treated with vehicle.

[8] = system: tumors from glucose limitation resistant cell line NCI-H82; assay: as above; assay type: in vivo; details: metformin 400 mg/kg, close to 3 weeks
Description: as §3

[9] = system: glucose limitation sensitive and glucose limitation resistant tumor cell lines; assay: Proliferation of tumor cell lines exposed to metformin under low glucose; assay type: cell-based
Description: We tested the sensitivity of a panel of glucose limitation sensitive and glucose limitation resistant tumor cell lines to treatment with metformin, a compound that inhibits OXPHOS at least in part by inhibiting complex 1. Cells were exposed to 2 mM metformin for 3 days.

Which “increase in OCR upon FCCP” value ([1]; glucose limitation resistant cell lines) does the source give for `N#CC(C#N)=NNc1ccc(OC(F)(F)F)cc1` [FCCP, Carbonyl cyanide 4-(trifluoromethoxy)phenylhydrazone] here?
The value was “much greater increase in OCR”.

What about the “increase in OCR upon FCCP” value ([1]; glucose limitation sensitive cells) of the same molecule?
Its value is “only a modest increase”.

For `CN(C)c1ccc(O)c2c1C[C@H]1C[C@H]3[C@H](N(C)C)C(O)=C(C(N)=O)C(=O)[C@@]3(O)C(O)=C1C2=O` [minocycline, (2E,4S,4aR,5aS,12aR)-2-(amino-hydroxy-methylidene)-4,7-bis(dimethylamino)-10,11,12a-trihydroxy-4a,5,5a,6-tetrahydro-4H-tetracene-1,3,12-trione], which penetration into organs [2] is on record?
The penetration into organs was “greatest penetration into certain organs such as the prostate and brain”.

What does the source list for `N=C(N)NC(=N)NCCc1ccccc1` [phenformin, 2-(N-phenethylcarbamimidoyl)guanidine]?
effects of phenformin on xenograft growth after introduction of NDI1 [3]: rescued; phenformin sensitivity at intermediate glucose ([4]; 1.5-3.0 mM glucose): substantial sensitivity persisted; sensitivity of BxPC3 cells to phenformin ([4]; BxPC3 pancreatic cancer cell line): sensitive; effect of GLUT3 over-expression on phenformin sensitivity ([4]; cells with impaired glucose utilization, 0.75 mM glucose): almost completely rescued the phenformin sensitivity; effect of NDI1 expression on the effects of phenformin on proliferation ([4]; cells with mutations in Complex I, 0.75 mM glucose): almost completely rescued the effects of phenformin; phenformin sensitivity in 0.75 versus 10 mM glucose ([4]; low glucose sensitive cell lines, particularly those with impaired glucose utilization): more sensitive to phenformin in 0.75 than 10 mM glucose; sensitivity of cells lacking mtDNA to phenformin (143B Rho cells): insensitive to phenformin; effect of NDI1 expression on the effects of phenformin on oxygen consumption [5]: almost completely rescued the effects of phenformin; growth of tumour xenografts (KMS-26 xenografts; KMS-26 (poor glucose consumption), phenformin 1.7 mg/ml in drinking water): inhibited the growth; effects of phenformin on xenograft growth after over-expression of GLUT3 (KMS-26 xenografts; KMS-26 cells over-expressing GLUT3): rescued; growth of tumour xenografts (BxPC3 xenografts): inhibited the growth; growth of tumour xenografts (U-937 xenografts): inhibited the growth; growth of tumour xenografts (NCI-H929 xenografts): inhibited the growth; growth of tumour xenografts (Cal-62 xenografts): inhibited the growth; sensitivity to low glucose after culture in phenformin (Cal-62 cells): decrease in sensitivity to low glucose; wild-type mtDNA content after culture in phenformin (Cal-62 cells): significantly enriched wild-type mtDNA content

Which results are given for `CN(C)C(=N)NC(=N)N` [metformin, N,N-dimethylimidodicarbonimidic diamide]?
relation of UQCRC1+CYC1 expression to metformin sensitivity [6]: correlated with sensitivity to metformin; also recorded: increased sensitivity; cleaved caspase 3 in tumors compared with vehicle [7]: increase in cleaved caspase 3; also recorded: increased level of cleaved caspase 3; reduction in size of tumors compared with vehicle (PBS) [7]: approximately 50%; tumor size in metformin treated versus vehicle treated mice [7]: half the size; cleaved caspase 3 in tumors compared with vehicle [8]: not observed; effect on size of tumors compared with vehicle (PBS) [8]: did not affect size of tumors; sensitivity to metformin (proliferation) of glucose limitation sensitive versus resistant cell lines ([9]; 2 mM metformin, 3 days, 0.75 mM glucose): markedly more sensitive; also recorded: greater inhibitory effects on proliferation; sensitivity of U937 cells to metformin ([9]; U937 cell line): sensitive
